Values quoted from earlier work as cited in patent US9751843B2, “Substituted uracils and use thereof” (Bayer Pharma Aktiengesellschaft, priority 2013, dated 2017).

Test system: chymase
[1] = hamsters, myocardial infarction model

For `CCOc1ccccc1CC1C(=O)N(C(=O)NC(c2ccc(C)cc2)c2ccc(C)cc2)C1Oc1ccc(C(=O)O)cc1` (stereo not drawn) [BCEAB], the chymase activity (hamster, in vivo) is listed as “reduced”, the hemodynamics [1] is listed as “improved” and the mortality [1] is listed as “reduced”.
